Test results reported in patent publication US5646180A (priority 1995, dated 1997).
Where two headings read alike, the source gives them in different places.

Columns and labels:
[1] = cited from earlier work
HIV-1 virus = experiment: HIV-1 infection of immortalized human T cells, assay of extracellular p24 antigen; format: cell-based; details: over a period of days
Description: Accordingly, the compound is capable of targeting and inhibiting late stage events in HIV replication, i.e., the processing of the viral polyproteins by HIV encoded proteases. […] Because aspartyl protease is essential for the production of mature virions, inhibition of that processing effectively blocks the spread of virus by inhibiting the production of infectious virions, particularly from chronically infected cells. […] Other anti-viral assays have confirmed the potency of this compound.

oral availability = format: in vivo; details: oral administration, mammals
aqueous solubility = format: physicochemical; details: water
HIV-1 protease = experiment: ligand for / inhibition of HIV-1 protease; format: biochemical
HIV-2 protease = experiment: ligand for / inhibition of HIV-2 protease; format: biochemical
[2] = Description: […]. The potential of this compound to be delivered at doses far exceeding its effective antiviral level is advantageous in slowing or preventing the possibility of resistant variants developing.
HIV = format: cell-based
[3] = prior-art HIV drugs, background statement, nucleosides compared with AZT

SMILES: CC(C)c1nc(CN(C)C(=O)N[C@H](C(=O)N[C@@H](Cc2ccccc2)C[C@H](O)[C@H](Cc2ccccc2)NC(=O)OCc2cncs2)C(C)C)cs1 [ABT 538]
- CNS distribution / CNS penetration (in words) ([1]; in vivo): very limited CNS penetration

SMILES: CC(C)CN(CC(O)C(Cc1ccccc1)NC(=O)OC1CCOC1)S(=O)(=O)c1ccc(N)cc1 (stereo not shown) [Compound I]
- inhibition of the ability of HIV-1 to infect immortalized human T cells (in words) (HIV-1 virus): inhibits the ability of the HIV-1 virus to infect immortalized human T cells
- oral availability (in words) (oral availability): surprisingly impressive oral availability
- solubility (aqueous solubility): ≥ 100 µg/mL
- ligand for HIV-1 protease (in words) (HIV-1 protease): excellent ligand
- ligand for HIV-2 protease (in words) (HIV-2 protease): excellent ligand
- therapeutic index (in words) [2]: impressively high therapeutic index
- combination effect in preventing the replication of HIV in human T cells (in words) (HIV): acts in an additive or synergistical manner

SMILES: CC(C)(C)NC(=O)[C@@H]1CN(Cc2cccnc2)CCN1C[C@@H](O)C[C@@H](Cc1ccccc1)C(=O)N[C@H]1c2ccccc2C[C@H]1O [Compound L-535524]
- CNS distribution / CNS penetration (in words) [1, 3]: about the same distribution

SMILES: Cc1cn([C@H]2C=C[C@@H](CO)O2)c(=O)[nH]c1=O [d4T]
- CNS distribution / CNS penetration (in words) [1, 3]: even worse distribution profiles in the CNS
